Active and inactive are the calls of the source. The rule behind the calls is not given here.
Experiments:
Mus musculus [1] = assay: Antidepressant activity in NMRI albino mouse assessed as increase in locomotion at 20 mg/kg, ip after 2 hrs relative to vehicle-treated control; type: functional, organism-based; set-up: dose 20 mg/kg
Mus musculus [2] = assay: Antidepressant activity in NMRI albino mouse assessed as hyperactivity by measuring motor excitation at 20 mg/kg, ip after 2 hrs relative to vehicle-treated control; type: functional, organism-based; set-up: dose 20 mg/kg
Mus musculus [3] = assay: Antidepressant activity in NMRI albino mouse assessed as hyperactivity by measuring irritability at 20 mg/kg, ip after 2 hrs relative to vehicle-treated control; type: functional, organism-based; set-up: dose 20 mg/kg
Mus musculus [4] = assay: Antidepressant activity in NMRI albino mouse assessed as hyperactivity by measuring sniffing at 20 mg/kg, ip after 2 hrs relative to vehicle-treated control; type: functional, organism-based; set-up: dose 20 mg/kg
Mus musculus [5] = assay: Antidepressant activity in NMRI albino mouse assessed as hyperactivity by measuring tremor at 20 mg/kg, ip after 2 hrs relative to vehicle-treated control; type: functional, organism-based; set-up: dose 20 mg/kg
Mus musculus [6] = assay: Antidepressant activity in NMRI albino mouse assessed as hyperactivity by measuring rearing at 20 mg/kg, ip after 2 hrs relative to vehicle-treated control; type: functional, organism-based; set-up: dose 20 mg/kg
Mus musculus [7] = assay: Antidepressant activity in NMRI albino mouse assessed as hyperactivity by measuring circling of head at 20 mg/kg, ip after 2 hrs relative to vehicle-treated control; type: functional, organism-based; set-up: dose 20 mg/kg
Mus musculus [8] = assay: Antidepressant activity in NMRI albino mouse assessed as hyperactivity by measuring repetitive movements of head at 20 mg/kg, ip after 2 hrs relative to vehicle-treated control; type: functional, organism-based; set-up: dose 20 mg/kg
[9] = target: Sodium-dependent noradrenaline transporter (Mus musculus, UniProt O55192)
Sequence of Sodium-dependent noradrenaline transporter (O55192 whole entry): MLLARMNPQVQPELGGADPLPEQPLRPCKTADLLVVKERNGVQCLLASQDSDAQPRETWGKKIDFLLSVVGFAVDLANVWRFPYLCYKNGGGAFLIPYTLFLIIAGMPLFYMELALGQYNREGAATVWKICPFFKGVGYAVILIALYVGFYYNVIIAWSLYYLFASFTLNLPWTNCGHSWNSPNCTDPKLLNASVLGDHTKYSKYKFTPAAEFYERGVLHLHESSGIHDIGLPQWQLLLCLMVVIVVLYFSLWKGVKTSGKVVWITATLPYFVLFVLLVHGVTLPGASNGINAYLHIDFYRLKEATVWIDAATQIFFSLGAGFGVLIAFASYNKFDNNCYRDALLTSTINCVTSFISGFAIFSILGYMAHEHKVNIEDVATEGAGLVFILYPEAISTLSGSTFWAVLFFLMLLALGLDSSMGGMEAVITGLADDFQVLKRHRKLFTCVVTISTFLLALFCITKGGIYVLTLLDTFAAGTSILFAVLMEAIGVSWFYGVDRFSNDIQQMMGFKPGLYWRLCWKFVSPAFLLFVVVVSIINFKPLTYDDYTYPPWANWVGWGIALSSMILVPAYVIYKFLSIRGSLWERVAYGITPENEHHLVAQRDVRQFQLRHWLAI
Description: Inhibition of noradrenaline transporter in NMRI albino mouse brain assessed as [3H]NA accumulation in hypothalamus after 5 mins

[10] = target: Sodium-dependent serotonin transporter (Mus musculus, UniProt Q60857)
Sequence of Sodium-dependent serotonin transporter (Q60857 whole entry): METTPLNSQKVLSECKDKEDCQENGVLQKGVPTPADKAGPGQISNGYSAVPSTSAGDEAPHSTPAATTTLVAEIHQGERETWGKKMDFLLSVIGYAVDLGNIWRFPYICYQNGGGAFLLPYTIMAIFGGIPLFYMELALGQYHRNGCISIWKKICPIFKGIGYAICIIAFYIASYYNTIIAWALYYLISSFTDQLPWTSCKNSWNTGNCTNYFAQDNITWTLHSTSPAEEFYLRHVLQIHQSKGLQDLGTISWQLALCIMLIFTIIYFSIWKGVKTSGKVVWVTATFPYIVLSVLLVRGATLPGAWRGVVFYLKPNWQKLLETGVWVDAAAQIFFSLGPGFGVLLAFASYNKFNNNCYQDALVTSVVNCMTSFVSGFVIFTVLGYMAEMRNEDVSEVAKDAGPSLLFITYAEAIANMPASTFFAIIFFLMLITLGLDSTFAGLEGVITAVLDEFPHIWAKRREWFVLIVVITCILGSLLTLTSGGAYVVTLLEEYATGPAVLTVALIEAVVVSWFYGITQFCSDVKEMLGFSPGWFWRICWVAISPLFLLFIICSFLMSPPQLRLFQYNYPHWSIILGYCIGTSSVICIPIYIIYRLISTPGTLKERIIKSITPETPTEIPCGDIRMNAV

Mus musculus [11] = species on record: Mus musculus
Description: Mydriatic effect in iv dosed NMRI albino mouse assessed as concentration required to increase pupil diameter by 200%

in vivo = conditions: NMRI albino, mouse, iv
Description: Acute toxicity in iv dosed NMRI albino mouse assessed as lethality up to 24 hrs

Mus musculus [12] = species on record: Mus musculus; assay: animal or person; conditions: NMRI, Hypothalamus, ip
Mus musculus [13] = species on record: Mus musculus; assay: animal or person; conditions: NMRI, Hypothalamus, ip; remark: listed apart in the source
Mus musculus [14] = species on record: Mus musculus; assay: animal or person; conditions: NMRI, Hypothalamus, ip; remark: listed apart in the source
Mus musculus [15] = species on record: Mus musculus; assay: animal or person; conditions: NMRI, ip
Mus musculus [16] = assay: Induction of hyperactivity in NMRI albino mouse at 20 mg/kg, ip in presence of pimozide; type: functional, organism-based; set-up: dose 20 mg/kg
Mus musculus [17] = assay: Induction of hyperactivity in NMRI albino mouse at 20 mg/kg, ip in presence of phenoxybenzamine; type: functional, organism-based; set-up: dose 20 mg/kg
Mus musculus [18] = assay: Induction of hyperactivity in NMRI albino mouse at 20 mg/kg, ip in presence of methergoline; type: functional, organism-based; set-up: dose 20 mg/kg
Mus musculus [19] = assay: Induction of hyperactivity in NMRI albino mouse at 20 mg/kg, ip in presence of reserpine; type: functional, organism-based; set-up: dose 20 mg/kg
Mus musculus [20] = assay: Induction of hyperactivity in NMRI albino mouse at 20 mg/kg, ip in presence of alpha-methyltyrosine; type: functional, organism-based; set-up: dose 20 mg/kg

SMILES	Activity (Mus musculus [1])	Activity (Mus musculus [2])	Activity (Mus musculus [3])	Activity (Mus musculus [4])	Activity (Mus musculus [5])	Activity (Mus musculus [6])	Activity (Mus musculus [7])	Activity (Mus musculus [8])	IC50 [9]	IC50 [10]	PD200 (Mus musculus [11])	LD50 at 24 h (in vivo)	ED50 (Mus musculus [12])	ED50 (Mus musculus [13])	ED50 (Mus musculus [14])	ED50 (Mus musculus [15])	also measured
Cl.NC1CC(c2ccccc2)(c2ccccc2)C1	Active	Active	Active	Active	Active	Active	Active	Active	2200 nM	2800 nM	15 µmol/kg	192 µmol/kg	103 µmol/kg	162 µmol/kg	> 154 µmol/kg	> 38 µmol/kg	–
CN(C)CCCN1c2ccccc2CCc2ccc(Cl)cc21 [CLOMIPRAMINE]	–	–	–	–	–	–	–	–	–	–	6 µmol/kg	142 µmol/kg	109 µmol/kg	20 µmol/kg	> 113 µmol/kg	8 µmol/kg	–
CNC1CC(c2ccccc2)(c2ccccc2)C1.Cl	Active	Active	Active	Active	Active	Active	Active	Active	800 nM	3000 nM	9 µmol/kg	128 µmol/kg	31 µmol/kg	95 µmol/kg	91 µmol/kg	9 µmol/kg	–
CN(C)C1CC(c2ccccc2)(c2ccccc2)C1.Cl	Active	Active	Active	Active	Active	Active	Active	Active	800 nM	900 nM	24 µmol/kg	104 µmol/kg	32 µmol/kg	48 µmol/kg	104 µmol/kg	17 µmol/kg	Activity (Mus musculus [16]): inactive; Activity (Mus musculus [17]): Active; Activity (Mus musculus [18]): Active; Activity (Mus musculus [19]): inactive; Activity (Mus musculus [20]): Active

Reference: ChEMBL document CHEMBL3244106, “Antidepressant agents. 9. 3,3-Diphenylcyclobutylamines, a new class of central stimulants” (J Med Chem, 1978)
